Measurements published in patent US20240384268A1, “Oligonucleotides” (Hudson Institute of Medical Research, priority 2021, published 2024).
In the oligonucleotide strings, read from the 5' end, every base follows the letter of its sugar. An asterisk marks phosphorothioate; unmarked linkages are phosphodiester. Other units and linkages are bracketed, terminal groups are in braces. A string of capitals states the bases alone. d = 2'-deoxy (DNA); m = 2'-O-methyl

How the values were obtained:
[1] = molecular target: T1, TLR7 (Mus musculus, UniProt P58681); experiment: Guanosine-induced TNFα in primary BMDMs; type: cell-based; design: endogenous in cells; host or cells: primary BMDMs from wild-type mice; details: WT primary BMDMs; 200 nM ASO 30 min; 500 μM Guanosine overnight
T1 sequence (P58681 27-1050): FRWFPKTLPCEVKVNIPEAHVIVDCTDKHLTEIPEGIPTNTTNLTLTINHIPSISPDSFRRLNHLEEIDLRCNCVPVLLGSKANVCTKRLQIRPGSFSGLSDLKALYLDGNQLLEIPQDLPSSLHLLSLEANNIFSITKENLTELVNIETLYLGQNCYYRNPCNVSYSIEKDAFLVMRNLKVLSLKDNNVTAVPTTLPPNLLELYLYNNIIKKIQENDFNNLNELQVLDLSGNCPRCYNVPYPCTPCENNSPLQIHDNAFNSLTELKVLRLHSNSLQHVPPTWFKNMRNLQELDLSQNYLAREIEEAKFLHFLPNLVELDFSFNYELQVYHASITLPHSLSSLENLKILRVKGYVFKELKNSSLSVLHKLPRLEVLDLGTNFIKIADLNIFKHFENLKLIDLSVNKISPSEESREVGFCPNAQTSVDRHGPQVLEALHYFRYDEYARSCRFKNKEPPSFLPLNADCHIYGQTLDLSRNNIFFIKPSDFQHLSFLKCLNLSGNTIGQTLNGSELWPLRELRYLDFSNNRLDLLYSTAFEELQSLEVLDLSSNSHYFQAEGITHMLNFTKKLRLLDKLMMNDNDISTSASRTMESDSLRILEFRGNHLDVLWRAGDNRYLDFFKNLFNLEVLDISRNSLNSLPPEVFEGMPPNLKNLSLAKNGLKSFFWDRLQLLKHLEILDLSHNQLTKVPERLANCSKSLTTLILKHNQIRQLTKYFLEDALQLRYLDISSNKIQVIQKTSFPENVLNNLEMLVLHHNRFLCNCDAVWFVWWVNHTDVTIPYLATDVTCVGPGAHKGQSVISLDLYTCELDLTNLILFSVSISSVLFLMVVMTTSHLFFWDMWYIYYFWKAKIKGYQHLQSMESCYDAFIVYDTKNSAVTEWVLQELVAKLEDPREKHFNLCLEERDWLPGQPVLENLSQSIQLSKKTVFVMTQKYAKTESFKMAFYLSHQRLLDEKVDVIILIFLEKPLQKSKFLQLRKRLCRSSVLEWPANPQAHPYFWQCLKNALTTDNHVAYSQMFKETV

[2] = molecular target: T2, TLR8 (Homo sapiens, UniProt Q9NR97); experiment: R848-driven IP-10 production in THP-1 cells (TLR8); type: cell-based; design: expressed in transfected cells; dose or concentration left out as unconfirmed; details: R848 7 h; for TLR8 potentiation in THP-1, short 2′OMe oligos (IP-10; in words): oligos overnight; for effect of 3-mer 2′OMe oligos on R848-driven IP-10 in THP-1 (in words): 3-mer oligos overnight
T2 sequence (Q9NR97 27-1041): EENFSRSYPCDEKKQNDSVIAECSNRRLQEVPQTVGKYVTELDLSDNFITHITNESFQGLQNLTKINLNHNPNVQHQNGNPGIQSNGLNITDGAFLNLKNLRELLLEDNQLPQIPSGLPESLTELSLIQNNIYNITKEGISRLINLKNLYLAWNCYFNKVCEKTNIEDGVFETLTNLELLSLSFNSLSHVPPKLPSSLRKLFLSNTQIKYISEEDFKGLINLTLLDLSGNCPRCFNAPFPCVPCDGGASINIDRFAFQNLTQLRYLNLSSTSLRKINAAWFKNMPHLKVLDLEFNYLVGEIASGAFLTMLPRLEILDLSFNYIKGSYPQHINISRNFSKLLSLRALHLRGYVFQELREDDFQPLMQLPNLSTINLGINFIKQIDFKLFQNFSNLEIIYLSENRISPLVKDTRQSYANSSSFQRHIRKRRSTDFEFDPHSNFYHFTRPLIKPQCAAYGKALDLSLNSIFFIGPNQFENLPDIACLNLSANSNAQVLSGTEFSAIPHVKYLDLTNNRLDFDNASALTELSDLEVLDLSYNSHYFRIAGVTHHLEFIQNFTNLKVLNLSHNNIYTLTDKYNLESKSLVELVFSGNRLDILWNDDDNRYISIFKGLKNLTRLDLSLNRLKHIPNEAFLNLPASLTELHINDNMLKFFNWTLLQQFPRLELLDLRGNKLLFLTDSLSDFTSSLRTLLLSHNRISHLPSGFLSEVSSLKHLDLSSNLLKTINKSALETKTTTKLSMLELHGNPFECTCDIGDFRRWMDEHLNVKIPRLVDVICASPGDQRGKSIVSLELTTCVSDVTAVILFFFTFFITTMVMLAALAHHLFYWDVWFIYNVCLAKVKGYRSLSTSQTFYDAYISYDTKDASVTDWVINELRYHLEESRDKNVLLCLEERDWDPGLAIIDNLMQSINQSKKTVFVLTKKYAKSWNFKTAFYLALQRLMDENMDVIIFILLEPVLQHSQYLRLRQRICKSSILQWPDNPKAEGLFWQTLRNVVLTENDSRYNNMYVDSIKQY
Description: FIG. 34: THP-1 cells were pre-treated overnight with […] ASOs, prior to R848 stimulation for 7h. […] All ASO conditions are with R848 co-stimulation.
FIG. 35: THP-1 cells were pre-treated overnight with indicated concentrations of ASOs, prior to R848 stimulation for 7h. […] All ASO conditions are with R848 co-stimulation. SEM and two-way ANOVA with Tukey's multiple comparisons to 660-3b condition are shown.
FIG. 36: A, B, C) HEK-TLR8 cells expressing an NF-κB-luciferase reporter were pre-treated 40 min with […] oligos, prior to Motolimod stimulation (400 nM [B] or 600 nM [A and C] overnight). Data shown are averaged from 2 (B) independent or a single experiment (A and C), completed with 3 biological triplicate. The NF-κB-luciferase values are reported to the Motolimod condition. D) THP-1 cells were pre-treated overnight with […] 3-mer oligos, prior to R848 stimulation ([…]) for 7h. IP-10 levels were measured by ELISA. Data shown are averaged from a single experiment completed with 3 biological triplicate, reported to the R848 only condition. A-E) All oligo conditions are with Motolimod or R848 co-stimulation.
Human IP-10 and IFN-β levels were measured using supernatants from the different cultures and were quantified using IP-10 (BD Biosciences, #550926) or IFN-β (PBL assay science, #41415-1) ELISA kits respectively, according to the manufacturers' protocol. Tetramethylbenzidine substrate (Thermo Fisher Scientific) was used for quantification of the cytokines on a Fluostar OPTIMA (BMG LABTECH) plate-reader.

Substance | TNFα production induced by guanosine (in words) [1] | effect of 3-mer 2′OMe oligos on R848-driven IP-10 in THP-1 (in words) [2] | further results
mC*mG*mU*T*T*C*C*C*C*C*C*C*C*C*C*C*C*C*C*C (CGUTTCCCCCCCCCCCCCCC; antisense; sugars from the 5' end m3 d17, all phosphorothioate, methylation of C not given here) [[C2]Mut1-v3-dC] | did not |  | 
mCmUmU (antisense mC*mU*mU) [660-3] |  |  | TLR8 potentiation in THP-1, short 2′OMe oligos (IP-10; in words) [2]: did not work; TLR8 potentiation in THP-1, short 2′OMe oligos (IP-10; in words) ([2]; listed as CUU): did not potentiate TLR8
mG*mC*mG*mG*mU*A*T*C*C*A*T*G*T*C*C*mC*mA*mG*mG*mC (mG*mC*mG*mG*mU*dA*dT*dC*dC*dA*dT*dG*dT*dC*dC*mC*mA*mG*mG*mC; antisense) [C2-Mut1] | significantly inhibiting TNFα levels |  | 
mG*mG*mU*A*T*C*C*C*C*C*C*C*C*C*C*C*C*C*C*C (GGUATCCCCCCCCCCCCCCC; antisense; sugars from the 5' end m3 d17, all phosphorothioate, methylation of C not given here) [[C2]Mut1-dC] | significantly inhibiting TNFα levels |  | 
mGmAmU (mG*mA*mU) [GAU, 3-mer 2′OMe PS oligo] |  | robustly the most potent | 
mGmUmA (GUA; all 2'-O-methyl, backbone not given here; further chemistry not fully specified) [shortMut1-3b] |  | robustly inhibitory | 
mGmUmC (mG*mU*mC) [GUC, 3-mer 2′OMe PS oligo] |  | robustly inhibitory | 
mGmUmG (mG*mU*mG) [GUG, 3-mer 2′OMe PS oligo] |  | robustly inhibitory | 
mGmUmU (mG*mU*mU) [GUU, 3-mer 2′OMe PS oligo] |  | robustly inhibitory | 
mUmCmG (antisense mU*mC*mG) [660-3b] |  |  | TLR8 potentiation in THP-1, short 2′OMe oligos (IP-10; in words) [2]: significantly potentiated TLR8 sensing
